Series [1] deals with Escherichia coli EC-1: VOGEL, mouse virulent. The experiment in a line: MIC determination (CLSI), EC-1. It is filed as cell-based. The conditions noted are these: Escherichia coli EC-1 VOGEL, mouse virulent. A digest of the protocol:
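E. coli Vogel, a mouse-virulent strain (EC-1), was tested. MICs were set by dilution susceptibility testing per CLSI standards M7-A7/M100-S18.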

For series [2], the system named is Acinetobacter baumanii/haemolyticus: Multidrug-resistant clinical isolate (AB-3167). The experiment in a line: MIC determination (CLSI), AB-3167. It is filed as cell-based. The conditions noted are these: Acinetobacter baumanii/haemolyticus multidrug-resistant clinical isolate AB-3167. A digest of the protocol: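 Multidrug-resistant clinical isolate AB-3167 (A. baumannii/haemolyticus) tested for minimum inhibitory concentration following CLSI dilution susceptibility standards M7-A7 and M100-S18.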

In series [3] the test system is Klebsiella pneumoniae: Ciprofloxacin-resistant isolate, ESBL, clinical isolate (KP-3700). The experiment in a line: MIC determination (CLSI), KP-3700. It is filed as cell-based. In a few lines: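 MIC measured by broth dilution according to CLSI M7-A7 and M100-S18 standards. Test organism was a ciprofloxacin-resistant, ESBL-expressing clinical isolate.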
Series [4] deals with Pseudomonas aeruginosa LpxC enzyme (Pseudomonas aeruginosa (strain ATCC 15692 / DSM 22644 / CIP 104116 / JCM 14847 / LMG 12228 / 1C / PRS 101 / PAO1), UniProt P47205). The experiment in a line: IC50 Assay, LpxC Enzyme from P. aeruginosa (PA LpxC Enzyme IC50). It is filed as biochemical. The conditions noted are these: P. aeruginosa LpxC enzyme; read-out: PA LpxC enzyeme IC50. A digest of the protocol: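 Reaction run 1 h then stopped with 1N HCl. Conversion measured by RapidFire high-throughput mass spectrometry. IC50 derived from percent conversion relative to a no-enzyme control.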

In series [5] the test system is Pseudomonas aeruginosa UI-18: Wild-type (PA-7). The experiment in a line: MIC determination (CLSI), PA-7. It is filed as cell-based. The conditions noted are these: Pseudomonas aeruginosa UI-18 wild-type PA-7. In a few lines:
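MIC by dilution method per CLSI M7-A7 and M100-S18 guidelines. Strain: wild-type Pseudomonas aeruginosa UI-18.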

SMILES strings stand for the structures.

Broadly, the IC50 is the concentration needed to halve the response being measured.

Take `CC(CCc1ccc(-c2ccc(OCCO)cc2)cc1)(C(=O)NO)S(C)(=O)=O` (stereo not drawn) [Example 113]: the “EC-1 MIC” value in series [1] was 2 µg/mL. Also, the “AB-3167 MIC” value in series [2] is “≧64 mg/L”. For the same molecule, in series [3], the “KP-3700 MIC” value amounted to 8 µg/mL. In series [4], the IC50 amounted to 0.148 nM. Also, the “PA-7 MIC” value in series [5] was found to be 1 µg/mL.
Take `CC(CCc1ccc(-c2ccc(OCCCO)cc2)cc1)(C(=O)NO)S(C)(=O)=O` (stereo not drawn) [Example 115]: in series [1], the “EC-1 MIC” value is 0.5 µg/mL. Besides, the “AB-3167 MIC” value in series [2] was “≧64 mg/L”. Besides, in series [3], the “KP-3700 MIC” value was 2 µg/mL. Also, the IC50 in series [4] came to 0.388 nM. Besides, in series [5], the “PA-7 MIC” value came to 2 µg/mL.
For `CC(CCc1ccc(-c2ccc(CO)c(F)c2)cc1)(C(=O)NO)S(C)(=O)=O` (stereo not drawn) [Example 123], in series [1], the “EC-1 MIC” value was found to be 16 µg/mL. The “AB-3167 MIC” value in series [2] is “≧64 mg/L”. The “KP-3700 MIC” value in series [3] came to 16 µg/mL. Also, the IC50 in series [4] is 0.491 nM. In addition, the “PA-7 MIC” value in series [5] came out at 1 µg/mL.
As for `CC(CCc1ccc(-c2ccc(C#N)c(Cl)c2)cc1)(C(=O)NO)S(C)(=O)=O` (stereo not drawn) [Example 126], the “EC-1 MIC” value in series [1] turned out to be 0.5 µg/mL. Besides, the “AB-3167 MIC” value in series [2] worked out at 8 µg/mL. Further, in series [3], the “KP-3700 MIC” value worked out at 2 µg/mL. Also, the IC50 in series [4] was determined as 0.329 nM. For the same molecule, in series [5], the “PA-7 MIC” value is 0.5 µg/mL.
Take `CC(CCc1ccc(-c2cc(F)c(C#N)c(F)c2)cc1)(C(=O)NO)S(C)(=O)=O` (stereo not drawn) [Example 127]: the “EC-1 MIC” value in series [1] was 1 µg/mL. The “AB-3167 MIC” value in series [2] amounted to 32 µg/mL. The “KP-3700 MIC” value in series [3] stood at 8 µg/mL. In series [4], the IC50 came to 0.15 nM. The “PA-7 MIC” value in series [5] turned out to be 2 µg/mL.
The matching figures for `CC(CCc1ccc(-c2ccc(C#N)cc2F)cc1)(C(=O)NO)S(C)(=O)=O` (stereo not drawn) [Example 128]: 0.5 µg/mL, “≧64 mg/L”, 8 µg/mL, 0.232 nM and 0.5 µg/mL.
The matching figures for `CC(CCc1ccc(OCc2ccccc2)cc1)(C(=O)NO)S(C)(=O)=O` (stereo not drawn) [Example 132]: 2 µg/mL, 16 µg/mL, 16 µg/mL, 0.386 nM and 2 µg/mL.
`CC(=O)c1ccc(-c2ccc(CCC(C)(C(=O)NO)S(C)(=O)=O)cn2)cc1` (stereo not drawn) [Example 133]: the “EC-1 MIC” value in series [1] amounted to 16 µg/mL. Moreover, in series [2], the “AB-3167 MIC” value is recorded as “≧64 mg/L”. Besides, the “KP-3700 MIC” value in series [3] is recorded as “≧64 mg/L”. The IC50 in series [4] was 0.985 nM. The “PA-7 MIC” value in series [5] came to 16 µg/mL.
`CC(CCc1ccc(-c2ccc(OCCCCO)cc2)cc1)(C(=O)NO)S(C)(=O)=O` (stereo not drawn) [Example 136]: the “EC-1 MIC” value in series [1] was 0.125 µg/mL. Also, in series [2], the “AB-3167 MIC” value is “≧64 mg/L”. For the same molecule, the “KP-3700 MIC” value in series [3] came out at 1 µg/mL. The IC50 in series [4] stood at 0.205 nM. The “PA-7 MIC” value in series [5] was 1 µg/mL.
Take `CC(CCc1ccc(-c2ccc(O)c(F)c2)cc1)(C(=O)NO)S(C)(=O)=O` (stereo not drawn) [Example 138]: the “EC-1 MIC” value in series [1] stood at 2 µg/mL. Also, the “AB-3167 MIC” value in series [2] was 32 µg/mL. Further, the “KP-3700 MIC” value in series [3] came out at 8 µg/mL. Further, the IC50 in series [4] came to 0.335 nM. The “PA-7 MIC” value in series [5] turned out to be 1 µg/mL.
Taken in the same sequence, the figures for `Cc1cc(-c2ccc(F)cc2)ccc1CCC(C)(C(=O)NO)S(C)(=O)=O` (stereo not drawn) [Example 157] were 1 µg/mL, 8 µg/mL, 4 µg/mL, 0.337 nM and 4 µg/mL.
With `CC(C)(O)CCc1ccc(-c2ccc(CCC(C)(C(=O)NO)S(C)(=O)=O)cc2)cc1` (stereo not drawn) [Example 158], in series [1], the “EC-1 MIC” value was found to be 0.5 µg/mL. Further, the “AB-3167 MIC” value in series [2] is 32 µg/mL. Moreover, in series [3], the “KP-3700 MIC” value amounted to 8 µg/mL. In series [4], the IC50 was 0.644 nM. Besides, the “PA-7 MIC” value in series [5] is 4 µg/mL.
